ChEMBL document CHEMBL1156272, “Discovery and SAR of novel pyrazole-based thioethers as cathepsin S inhibitors. Part 2: Modification of P3, P4, and P5 regions” (Bioorg Med Chem Lett, 2010)
One block for each molecule: values may come before it.

What was measured:
Cathepsin S [1] = target: T1, Cathepsin S (Homo sapiens, UniProt P25774); assay: Inhibition of cathepsin S in human JY cells assessed as accumulation of invariant chain p10 fragment after 24 hrs by Western blot analysis; format: cell-based
Cathepsin S [2] = target: T1, Cathepsin S; assay: Inhibition of human cathepsin S by ADAM-28 substrate-based fluorescence assay
[3] = target: Voltage-gated inwardly rectifying potassium channel KCNH2 (Homo sapiens, UniProt Q12809); assay: Inhibition of human ERG by astemizole binding assay
Chain of Voltage-gated inwardly rectifying potassium channel KCNH2 (Q12809 whole entry): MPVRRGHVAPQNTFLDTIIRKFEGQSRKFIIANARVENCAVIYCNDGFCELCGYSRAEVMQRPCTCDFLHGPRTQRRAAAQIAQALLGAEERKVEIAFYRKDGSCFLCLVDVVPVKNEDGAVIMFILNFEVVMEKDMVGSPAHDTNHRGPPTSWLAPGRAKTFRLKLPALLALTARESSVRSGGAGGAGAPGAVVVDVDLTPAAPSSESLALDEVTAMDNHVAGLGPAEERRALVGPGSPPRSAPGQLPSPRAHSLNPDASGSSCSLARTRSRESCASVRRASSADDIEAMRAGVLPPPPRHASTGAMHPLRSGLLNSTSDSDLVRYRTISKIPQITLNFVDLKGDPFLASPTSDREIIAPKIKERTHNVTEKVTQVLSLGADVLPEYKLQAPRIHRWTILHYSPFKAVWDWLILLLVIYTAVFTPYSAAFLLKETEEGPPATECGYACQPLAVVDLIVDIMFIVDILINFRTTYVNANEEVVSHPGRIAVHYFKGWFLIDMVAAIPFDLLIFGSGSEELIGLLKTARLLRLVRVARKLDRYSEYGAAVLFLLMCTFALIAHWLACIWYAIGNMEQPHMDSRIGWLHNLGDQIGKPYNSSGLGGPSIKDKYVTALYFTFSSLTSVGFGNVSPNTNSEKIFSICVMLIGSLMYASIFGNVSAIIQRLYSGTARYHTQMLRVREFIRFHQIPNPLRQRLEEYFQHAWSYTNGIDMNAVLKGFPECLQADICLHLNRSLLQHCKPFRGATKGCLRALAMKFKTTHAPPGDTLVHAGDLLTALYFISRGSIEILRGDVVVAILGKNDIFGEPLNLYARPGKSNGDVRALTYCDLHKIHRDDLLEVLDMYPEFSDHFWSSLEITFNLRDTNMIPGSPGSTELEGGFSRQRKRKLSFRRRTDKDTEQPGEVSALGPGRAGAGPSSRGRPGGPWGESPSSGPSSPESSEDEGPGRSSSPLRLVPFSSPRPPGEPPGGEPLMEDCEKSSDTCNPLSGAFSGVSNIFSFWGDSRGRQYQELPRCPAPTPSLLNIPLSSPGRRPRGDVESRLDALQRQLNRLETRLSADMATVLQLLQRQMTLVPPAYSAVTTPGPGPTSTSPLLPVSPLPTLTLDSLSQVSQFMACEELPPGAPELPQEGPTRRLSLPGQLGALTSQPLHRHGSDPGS

T1 sequence (P25774 whole entry, the tested form may be a part): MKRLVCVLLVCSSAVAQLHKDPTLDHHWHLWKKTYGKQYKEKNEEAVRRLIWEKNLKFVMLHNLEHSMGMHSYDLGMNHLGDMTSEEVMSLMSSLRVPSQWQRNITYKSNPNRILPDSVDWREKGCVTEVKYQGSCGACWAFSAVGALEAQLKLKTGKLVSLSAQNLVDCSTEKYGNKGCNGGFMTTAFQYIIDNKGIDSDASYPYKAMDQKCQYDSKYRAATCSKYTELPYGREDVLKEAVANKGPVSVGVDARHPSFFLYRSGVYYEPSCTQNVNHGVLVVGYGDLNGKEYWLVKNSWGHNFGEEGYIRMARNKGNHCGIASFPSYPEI

SMILES: CS(=O)(=O)N1CCc2c(c(-c3ccc(C(F)(F)F)c(SCCN4CCC(F)CC4)c3)nn2C[C@@H](O)CN2CCCCC2)C1
IC50 (Cathepsin S [1]): 120 nM
IC50 (Cathepsin S [2]): 58 nM

SMILES: CC(=O)N1CCc2c(c(-c3ccc(C(F)(F)F)c(SCCN4CCC(F)CC4)c3)nn2C[C@@H](O)CN2CCCCC2)C1
IC50 (Cathepsin S [2]): 385 nM

SMILES: CS(=O)(=O)N1CCc2c(c(-c3ccc(C(F)(F)F)c(SCCN4CCCCC4)c3)nn2CC(O)CN2CCC(C(=O)N3CCCC3)CC2)C1 (racemic)
IC50 (Cathepsin S [1]): 96 nM

SMILES: CS(=O)(=O)N1CCc2c(c(-c3ccc(C(F)(F)F)c(SCCN4CCCCC4)c3)nn2CC(O)CN2CCCCC2)C1 (racemic)
IC50 (Cathepsin S [1]): 335 nM
IC50 (Cathepsin S [2]): 204 nM

SMILES: CS(=O)(=O)N1CCc2c(c(-c3ccc(C(F)(F)F)c(SCCN4CCCCC4)c3)nn2CC(O)CN2CCC(C3CCCC3)CC2)C1 (racemic)
IC50 (Cathepsin S [1]): 81 nM
IC50 (Cathepsin S [2]): 218 nM

SMILES: CS(=O)(=O)N1CCc2c(c(-c3ccc(C(F)(F)F)c(SCCN4CCCCC4)c3)nn2CC(O)CN2CCC(c3ccccc3C#N)CC2)C1 (racemic)
IC50 (Cathepsin S [1]): 160 nM
inhibition (INH) [3]: Active
IC50 (Cathepsin S [2]): 10 nM

SMILES: CS(=O)(=O)N1CCc2c(c(-c3ccc(C(F)(F)F)c(SCCN4CCCCC4)c3)nn2CC(O)CN2CCC(c3ccccn3)CC2)C1 (racemic)
IC50 (Cathepsin S [1]): 62 nM
inhibition (INH) [3]: Active

SMILES: CS(=O)(=O)N1CCc2c(c(-c3ccc(C(F)(F)F)c(SCCN4CCCCC4)c3)nn2CC(O)CN2CCC(N3CCCC3=O)CC2)C1 (racemic)
IC50 (Cathepsin S [1]): 152 nM

SMILES: CS(=O)(=O)N1CCc2c(c(-c3ccc(C(F)(F)F)c(SCCN4CCCC4)c3)nn2CC(O)CN2CCCCC2)C1 (racemic)
IC50 (Cathepsin S [1]): 458 nM

SMILES: CS(=O)(=O)N1CCc2c(c(-c3ccc(C(F)(F)F)c(SCCN4CCC(F)CC4)c3)nn2CC(O)CN2CCCCC2)C1 (racemic)
IC50 (Cathepsin S [1]): 493 nM

SMILES: CCCNCC(O)Cn1nc(-c2ccc(C(F)(F)F)c(SCCN3CCCCC3)c2)c2c1CCN(S(C)(=O)=O)C2 (racemic)
IC50 (Cathepsin S [2]): 595 nM

Second part, the molecule after the results:

IC50 (Cathepsin S [1]): 810 nM
IC50 (Cathepsin S [2]): 395 nM
SMILES: CS(=O)(=O)N1CCc2c(c(-c3ccc(C(F)(F)F)c(SCCN4CCC(F)CC4)c3)nn2C[C@H](O)CN2CCCCC2)C1

IC50 (Cathepsin S [2]): 235 nM
SMILES: NC(=O)N1CCc2c(c(-c3ccc(C(F)(F)F)c(SCCN4CCC(F)CC4)c3)nn2C[C@@H](O)CN2CCCCC2)C1

IC50 (Cathepsin S [2]): 355 nM
SMILES: O=C(c1cccs1)N1CCc2c(c(-c3ccc(C(F)(F)F)c(SCCN4CCC(F)CC4)c3)nn2C[C@@H](O)CN2CCCCC2)C1

IC50 (Cathepsin S [1]): 320 nM
IC50 (Cathepsin S [2]): 205 nM
SMILES: O=C(c1nc[nH]n1)N1CCc2c(c(-c3ccc(C(F)(F)F)c(SCCN4CCC(F)CC4)c3)nn2C[C@@H](O)CN2CCCCC2)C1

IC50 (Cathepsin S [2]): 235 nM
SMILES: O=C(CO)N1CCc2c(c(-c3ccc(C(F)(F)F)c(SCCN4CCC(F)CC4)c3)nn2C[C@@H](O)CN2CCCCC2)C1

IC50 (Cathepsin S [2]): 245 nM
SMILES: CC(O)C(=O)N1CCc2c(c(-c3ccc(C(F)(F)F)c(SCCN4CCC(F)CC4)c3)nn2C[C@@H](O)CN2CCCCC2)C1 (stereo partly specified)

IC50 (Cathepsin S [1]): 190 nM
IC50 (Cathepsin S [2]): 70 nM
SMILES: NC(=O)C(=O)N1CCc2c(c(-c3ccc(C(F)(F)F)c(SCCN4CCC(F)CC4)c3)nn2C[C@@H](O)CN2CCCCC2)C1

IC50 (Cathepsin S [2]): 9600 nM
SMILES: OC(CN1CCCCC1)Cn1nc(-c2ccc(C(F)(F)F)c(SCCN3CCC(F)CC3)c2)c2c1CCNC2 (stereo unspecified)

IC50 (Cathepsin S [1]): 401 nM
IC50 (Cathepsin S [2]): 335 nM
SMILES: CS(=O)(=O)N1CCc2c(c(-c3ccc(C(F)(F)F)c(SCCN4CCCCC4)c3)nn2CC(O)CN2CCCC2)C1 (racemic)

IC50 (Cathepsin S [1]): 889 nM
IC50 (Cathepsin S [2]): 325 nM
SMILES: CS(=O)(=O)N1CCc2c(c(-c3ccc(C(F)(F)F)c(SCCN4CCCCC4)c3)nn2CC(O)CN2CCOCC2)C1 (racemic)

IC50 (Cathepsin S [1]): 220 nM
SMILES: CS(=O)(=O)N1CCc2c(c(-c3ccc(C(F)(F)F)c(SCCN4CCCCC4)c3)nn2CC(O)CN2CCN(C3CC3)CC2)C1 (racemic)

IC50 (Cathepsin S [1]): 2520 nM
IC50 (Cathepsin S [2]): 420 nM
SMILES: CS(=O)(=O)N1CCc2c(c(-c3ccc(C(F)(F)F)c(SCCN4CCOCC4)c3)nn2CC(O)CN2CCCCC2)C1 (racemic)

IC50 (Cathepsin S [2]): 1130 nM
SMILES: CS(=O)(=O)N1CCc2c(c(-c3ccc(C(F)(F)F)c(SCCN)c3)nn2CC(O)CN2CCCCC2)C1 (racemic)
